For 24 compounds, TGI and GI50 results are on record in PubChem BioAssay (NCI).

Among the test systems are OVCAR-5 ovarian; IGROV1 ovarian; BT-549 breast; MDA-MB-435; NCI-H23 lung.
Holding throughout (experiment): inhibition of tumour cell growth, NCI panel, 48 h

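All cell lines were grown in 96-well plates and treated with compound for 48 hours. GI50 marks 50% less growth. TGI: total growth inhibition.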 A value given as a limit tells only on which side of the number the result lay.

As for `C=CCOc1ccc(C2C(C(=O)OC)C(=O)CC(O)(c3ccccc3)C2C(=O)OC)cc1OC` (centres undefined), the TGI in the assay on OVCAR-5 ovarian, in the assay on IGROV1 ovarian, with BT-549 breast, in the assay with MDA-MB-435 and with NCI-H23 lung was over 100 µM each time.
As to `CSc1c(C#N)c(N)n(-c2ccc(Cl)cc2)c(=O)c1C#N`, the TGI in the assay with OVCAR-5 ovarian, in the assay on IGROV1 ovarian, in the assay on BT-549 breast, in the assay on MDA-MB-435 and in the assay on NCI-H23 lung was over 100 µM in each case.
Consider `CC(=O)O[C@H]1CC[C@@]2(C)C(=CC[C@@H]3[C@@H]2CC[C@]2(C)c4nc(Cl)ccc4C[C@@H]32)C1`, for which the TGI with OVCAR-5 ovarian was over 100 µM; in the assay with IGROV1 ovarian it was over 100 µM; with BT-549 breast, over 100 µM; in the assay on MDA-MB-435 it was over 100 µM; with NCI-H23 lung, 19.4 µM.
For the compound `O=C(O)c1ccccc1N=Nc1c(O)c(S(=O)(=O)O)cc2cc(S(=O)(=O)O)ccc12`, the TGI in the assay on OVCAR-5 ovarian, in the assay on IGROV1 ovarian, in the assay on MDA-MB-435 and in the assay with NCI-H23 lung was over 100 µM each time.
Take `O=[N+]([O-])c1ccc(C(O)(C#CCN2CCCC2)c2ccccc2)cc1` (centres undefined): the TGI was over 100 µM in the assay on OVCAR-5 ovarian; over 100 µM with IGROV1 ovarian; over 100 µM in the assay with BT-549 breast; 80.1 µM in the assay with MDA-MB-435; over 100 µM in the assay on NCI-H23 lung.
As for `CC(C)(C)NC(=O)CCC1C(C(=O)NC(C)(C)C)C2(Cl)C(Cl)=C(Cl)C1(Cl)C2(Cl)Cl` (centres undefined), the TGI in the assay on OVCAR-5 ovarian, in the assay on IGROV1 ovarian, in the assay on BT-549 breast, in the assay on MDA-MB-435 and with NCI-H23 lung was over 100 µM throughout.
For `CN(C)CCc1c2c(nc3ccccc13)C(=O)c1cccnc1C2=O`, the TGI in the assay with OVCAR-5 ovarian stood at 3.44 µM; with IGROV1 ovarian, 2.14 µM; with BT-549 breast, 1.71 µM; in the assay on MDA-MB-435 it was 1.15 µM; in the assay on NCI-H23 lung, 0.49 µM.
The matching figures for `N#Cc1nc(C#N)n(S(=O)(=O)c2ccccc2)c1NS(=O)(=O)c1ccccc1`: over 100 µM, over 100 µM, over 100 µM, over 100 µM and over 100 µM.
With `COc1cc(O)c2c(=O)c(OC)c(-c3ccc(OC)c(OC)c3)oc2c1`, the GI50 was 23 µM with OVCAR-5 ovarian and over 100 µM in the assay on IGROV1 ovarian. The TGI in the assay on OVCAR-5 ovarian, in the assay with IGROV1 ovarian and in the assay with MDA-MB-435 was over 100 µM each time.
As for `CN(C)CCNC(=O)c1cccc2c(NC(CCC(N)=O)C(=O)O)c3ccccc3nc12` (centres undefined), the TGI with OVCAR-5 ovarian is over 100 µM; in the assay on IGROV1 ovarian, 36.6 µM; with BT-549 breast, 33.4 µM; in the assay with MDA-MB-435, 23.1 µM; in the assay with NCI-H23 lung it was 18.4 µM.
Consider `O=c1[nH]nc(-c2ccccc2)n1O`, for which the TGI with OVCAR-5 ovarian, with IGROV1 ovarian, in the assay with MDA-MB-435 and with NCI-H23 lung was over 100 µM throughout.
For `c1ccc(CC2COC(c3cccs3)=N2)cc1` (centres undefined), the TGI in the assay on OVCAR-5 ovarian, in the assay with IGROV1 ovarian, in the assay on BT-549 breast, in the assay with MDA-MB-435 and in the assay with NCI-H23 lung was over 100 µM each time.
In the case of `N#C/C(C(=S)NCc1ccccc1)=C(/N)N1CCCC1`, the TGI in the assay on OVCAR-5 ovarian, in the assay with IGROV1 ovarian, with MDA-MB-435 and in the assay with NCI-H23 lung was over 100 µM each time.
As to `CC(C)(CCC(C)(C)N1OC1c1ccccc1)N1OC1c1ccccc1` (centres undefined), the TGI in the assay with BT-549 breast, in the assay with MDA-MB-435 and with NCI-H23 lung was over 100 µM in each case.
In the case of `C=C1CC[C@@H](C)[C@](C)(CCc2ccoc2)C/C=C\C=C/1C(=O)O`, the TGI in the assay with OVCAR-5 ovarian is over 100 µM; in the assay with IGROV1 ovarian, over 100 µM; with BT-549 breast, 49.1 µM; in the assay on MDA-MB-435 it was over 100 µM; with NCI-H23 lung, over 100 µM.
With `COc1cc(Nc2nc3cc(C(F)(F)F)ccc3n3cccc23)cc(OC)c1OC`, the TGI in the assay on OVCAR-5 ovarian, in the assay with IGROV1 ovarian, with BT-549 breast, in the assay on MDA-MB-435 and in the assay with NCI-H23 lung was over 100 µM in each case.
As for `O=C1Cc2c([nH]c3ccc(C(=O)O)cc23)-c2ccccc2N1`, the TGI in the assay with OVCAR-5 ovarian, in the assay with IGROV1 ovarian, with BT-549 breast, in the assay on MDA-MB-435 and in the assay on NCI-H23 lung was over 100 µM throughout.
For `COC(=O)Cc1c(-c2c(CC(=O)OC)c3ccccc3n2C2OC(COC(C)=O)C(OC(C)=O)C(OC(C)=O)C2OC(C)=O)[nH]c2ccccc12` (centres undefined), the TGI with OVCAR-5 ovarian, in the assay with IGROV1 ovarian, in the assay with BT-549 breast, in the assay on MDA-MB-435 and in the assay on NCI-H23 lung was over 100 µM in each case.
On to `CN(CCCNC(=O)c1cc(-c2ccccc2)nc2ccccc12)CCCNC(=O)c1cc(-c2ccccc2)nc2ccccc12`, for which the TGI in the assay on OVCAR-5 ovarian was found to be 4.81 µM; in the assay with IGROV1 ovarian, 13.7 µM; with BT-549 breast it was 26.8 µM; with MDA-MB-435, 3.17 µM; in the assay on NCI-H23 lung, 16.1 µM.
Take `Nc1ccc(Nc2cc(=O)[nH]c(=O)[nH]2)cc1Cl`: the TGI with OVCAR-5 ovarian, in the assay with BT-549 breast, in the assay on MDA-MB-435 and in the assay on NCI-H23 lung was over 100 µM throughout.
With `CN=C(Nc1cccc(C(F)(F)F)c1)SCc1ccc(N=C=S)cc1`, the TGI in the assay with OVCAR-5 ovarian was 30.2 µM; with IGROV1 ovarian, 32.8 µM; in the assay with MDA-MB-435, 27 µM; in the assay with NCI-H23 lung, 31.4 µM.
`O=C(c1ccco1)N(C(=O)N1CCN(c2ccccc2)CC1)S(=O)(=O)c1ccccc1`: the TGI in the assay with OVCAR-5 ovarian was over 100 µM; in the assay with BT-549 breast, 87.6 µM; with MDA-MB-435 it was 56.3 µM; with NCI-H23 lung, 53.2 µM.
Regarding `O=c1[nH]c(Nc2nc3ccccc3[nH]2)nc(O)c1Cc1ccccc1`, the TGI in the assay with IGROV1 ovarian, with BT-549 breast, in the assay on MDA-MB-435 and with NCI-H23 lung was over 100 µM each time.
Consider `COc1cccc(C2c3cc4c(cc3OC3COC(=O)C32)OCO4)c1OC` (centres undefined), for which the TGI in the assay with OVCAR-5 ovarian, with IGROV1 ovarian and in the assay on BT-549 breast was over 100 µM each time.
